The assay concerns the target human V2 vasopressin receptor subtype (Homo sapiens, UniProt P30518). The experiment in a line: Vasopressin binding in CHO cell membranes expressing human vasopressin V2 subtype receptors. The following applies: [3H]arginine vasopressin; for IC50: value in parentheses; for inhibition at 0.1 µM / V2 % inhibition at 100 nM: 100 nM. The source says: Vasopressin Binding in Chinese Hamster Ovary Cell Membranes Expressing Human Vasopressin V2 Subtype Receptors
Chinese Hamster Ovary (CHO) cells stably transfected with the human V2 subtype receptors were obtained from M. Thibonnier, Case Western Reserve University School of Medicine, Cleveland, Ohio.
A. Passaging and Amplification of Cells:
CHO cells transfected with the human vasopressin V2 subtype receptors obtained from M. Thibonnier (pZeoSV vector) are allowed to grow to confluency (approx. >90%) in T-150 flasks under sterile conditions, in a cell culture medium of F-12 Nutrient Mixture (HAM) with L-glutamine (Gibco Cat. # 11765-054) containing 15 mM HEPES (Gibco Cat. # 15630-080), 1% antibiotic/antimycotic (add 5 mL 100×, Gibco Cat. # 15240-062 per 500 mL F-12), 250 μg/mL Zeocin (add 1.25 mL of 100 mg/mL Invitrogen R-250-01 per 500 mL F-12) and 10% Fetal Bovine Serum (Qualified, heat inactivated, Gibco Cat. # 16140-063). The medium is removed by aspiration and the cells washed with 10 mL of Hank's Balanced Salt solution (Gibco Cat. # 14175-095). The salt solution is removed by aspiration and the cells trypsinized with 5 mL of trypsin-EDTA (0.05% trypsin, 0.53 mM EDTA-4Na, Gibco Cat. # 25300-070) for 1 min. The trypsin is removed by aspiration and the cells dislodged by tapping. Cell Culture medium (e.g. 30 mL for 1:30 split) is immediately added and mixed well to inactivate trypsin. 1 mL of detached cells is added to new culture flasks containing fresh Cell Culture medium (e.g. into 25 mL per T-150 flask), and mixed gently. The cells are incubated at 37° C. in 5% CO2. The medium is changed at 3 to 4 day interval (or as appropriate). The cells grow to confluency (approx. >75%–95%) within 7–8 days. All steps are done under sterile conditions. B. Membrane Preparation: The cells are washed twice gently with Hank's Balanced Salt solution (e.g. use 10 mL per T-150 flask). The excess solution is removed and the cells bathed for 15–30 min. in an enzyme-free Cell Dissociation Buffer (e.g. use 8 mL Hank's Based, Gibco Cat. # 13150-016 per T-150 flask) until cells are loosened. The contents are transferred to centrifuge tubes (50 mL) kept in an ice bath. All subsequent steps are done at 4° C. The tubes are centrifuged at 300× g for 15 min (1380 rpm on SORVAL, Model RT6000D, using the rotor for 50 mL tubes). The supernatant is discarded and the cells suspended in homogeneizing buffer(10 mM Tris-HCl containing 0.25 M sucrose and 1 mM EDTA, pH 7.4) ensuring that the volume of the buffer is about ten times the volume of the cell pellet. The cells are pooled into a centrifuge tube (50 mL) and homogenized with a Polytron at setting 6 for 10 sec. The homogenate is transferred into a Potter-Elvjehm homogeneizer and homogenized with 3 strokes. The homogenate is centrifuged at 1500×g for 60 min at 4° C. (3100 rpm using SORVAL, model RT6000D, using the rotor for 50 mL tubes). The pellet is discarded. The supernatant is centrifuged at 100,000×g for 60 min. at 4° C. (Beckman L8-80M ultracentrifuge; spin at 37,500 rpm with rotor type 70 Ti for 50 mL tubes; 38,000 rpm with type 80Ti for 15 mL tubes; or 35,800 rpm with rotor type 45Ti). The supernantant is discarded and the pellet suspended in 3 to 4 mL of Tris buffer (50 mM TRIS-HCl, pH 7.4). The protein content is estimated by the Bradford or Lowry method. The volume of the membrane suspension is adjusted with the membrane buffer (50 mM Tris-HCl containing 0.1% BSA and 0.1 mM PMSF) to give 3.0 mg/mL (or as appropriate) of protein. The membranes are aliquoted and stored at −70° C. C. Radioligand Binding Assay: In wells of a 96-well format microtiter plate, is added 90, 110 or 130 μL (to make up a final volume of 200 μL) of assay buffer containing 50 mM of Tris-HCl (pH 7.4), […], 1 mg % aprotinin, 1 mg % leupeptin, 2 mg % 1,10-phenanthroline, 10 mg % trypsin inhibitor, and 0.1 mM PMSF. The inhibitors are added on the day of the experiment. […]

Chain of human V2 vasopressin receptor subtype (P30518 whole entry): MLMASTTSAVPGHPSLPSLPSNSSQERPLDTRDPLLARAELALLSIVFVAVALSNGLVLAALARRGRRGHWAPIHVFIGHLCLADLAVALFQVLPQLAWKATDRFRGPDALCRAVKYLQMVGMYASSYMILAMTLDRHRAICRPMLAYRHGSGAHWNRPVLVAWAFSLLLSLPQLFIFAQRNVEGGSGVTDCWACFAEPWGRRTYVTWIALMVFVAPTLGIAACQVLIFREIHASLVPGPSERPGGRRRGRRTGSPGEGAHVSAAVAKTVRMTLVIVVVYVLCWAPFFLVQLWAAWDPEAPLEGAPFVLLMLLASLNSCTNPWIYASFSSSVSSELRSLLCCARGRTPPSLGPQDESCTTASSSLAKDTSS

As usually defined, the IC50 is the concentration that inhibits the measured activity by half. Turning to `CN(C)/C=N/C(=O)c1ccc2n1Cc1ccccc1N(C(=O)c1ccc(C3CCCCC3)cc1)C2` [Example 17], the IC50 came to 0.477 µM.
One may read the inhibition as the drop in the measured response relative to a control, in per cent. A higher inhibition goes with a strong effect. As to `O=C(NCCN1CCCCC1)c1ccc2n1Cc1ccccc1N(C(=O)c1ccc(C3CCCCC3)cc1)C2` [Example 37, 10-(4-Cyclohexyl-benzoyl)-N-[2-(1-piperidinyl)ethyl]-10,11-dihydro-5H-pyrrolo[2,1-c][1,4]benzodiazepine-3-carboxamide], the inhibition at 0.1 µM came out at 8%.
In turn, `O=C(NCCc1ccccn1)c1ccc2n1Cc1ccccc1N(C(=O)c1ccc(C3CCCCC3)cc1)C2` [Example 49, 10-(4-Cyclohexyl-benzoyl)-N-[2-(2-pyridinyl)ethyl]-10,11-dihydro-5H-pyrrolo[2,1-c][1,4]benzodiazepine-3-carboxamide] displayed an inhibition at 0.1 µM of 10%.
On to `CC(=O)c1ccc2n1Cc1ccccc1N(C(=O)c1ccc(C3CCCCC3)cc1)C2` [Example 6, 1-[10-(4-Cyclohexyl-benzoyl)-10,11-dihydro-5H-pyrrolo[2,1-c][1,4]benzodiazepin-3-yl]-ethanone], for which the IC50 is above 1 µM.
Same read-out and setting: under `O=C(c1ccc2n1Cc1ccccc1N(C(=O)c1ccc(C3CCCCC3)cc1)C2)N1CCN(c2ccccn2)CC1` [Example 28, [10-(4-Cyclohexyl-benzoyl)-10,11-dihydro-5H-pyrrolo[2,1-c][1,4]benzodiazepine 3-yl][4-(2-pyridinyl)-1-piperazinyl]-methanone] stands above 1 µM.
Take `O=C(c1ccc2n1Cc1ccccc1N(C(=O)c1ccc(C3CCCCC3)cc1)C2)N1CCN(CCO)CC1` [Example 48, [10-(4-Cyclohexyl-benzoyl)-10,11-dihydro-5H-pyrrolo[2,1-c][1,4]benzodiazepin-3-y][4-(2-hydroxyethyl)-1-piperazinyl]methanone]: the “V2 % inhibition at 100 nM” value is 14%.
`O=C(c1ccc(C2CCCCC2)cc1)N1Cc2ccc(C(=O)C(Cl)(Cl)Cl)n2Cc2ccccc21` [Example 7, 2,2,2-Trichloro-1-[10-(4-cyclohexyl-benzoyl)-10,11-dihydro-5H-pyrrolo[2,1-c][1,4]benzodiazepin-3-yl]-1-ethanone] came in with an inhibition at 0.1 µM of 10%.
As to `C/C(=N\C(=O)c1ccc2n1Cc1ccccc1N(C(=O)c1ccc(C3CCCCC3)cc1)C2)N(C)C` [Example 18], the IC50 was 0.294 µM.
Still for that read-out and setting: as for `O=C(c1ccc2n1Cc1ccccc1N(C(=O)c1ccc(C3CCCCC3)cc1)C2)N1CCC(N2CCCCC2)CC1` [Example 26, [1,4′]Bipiperidinyl-1′-yl-[10-(4-cyclohexyl-benzoyl)-10,11-dihydro-5H-pyrrolo[2,1-c][1,4]benzodiazepin-3-yl]-methanone], the figure is above 1 µM.
For the compound `CN(C)[C@@H]1CCN(C(=O)c2ccc3n2Cc2ccccc2N(C(=O)c2ccc(C4CCCCC4)cc2)C3)C1` [Example 47, [10-(4-Cyclohexyl-benzoyl)-10,11-dihydro-5H-pyrrolo[2,1-C][1,4]benzodiazepin-3-yl][(3R)-3-(dimethylamino)pyrrolidinyl]methanone], the “V2 % inhibition at 100 nM” value turned out to be 0%.
As for `CN1CCC(N(C)C(=O)c2ccc3n2Cc2ccccc2N(C(=O)c2ccc(C4CCCCC4)cc2)C3)CC1` [Example 39, 10-(4-Cyclohexyl-benzoyl)-N-methyl-N-(1-methyl-4-piperidinyl)-10,11-dihydro-5H-pyrrolo[2,1-c][1,4]benzodiazepine-3-carboxamide], the inhibition at 0.1 µM came to 13%.
With `O=C(c1ccc2n1Cc1ccccc1N(C(=O)c1ccc(C3CCCCC3)cc1)C2)N1CCN(c2ccncc2)CC1` [Example 54, [10-(4-Cyclohexyl-benzoyl)-10,11-dihydro-5H-pyrrolo[2,1-c][1,4]benzpdiazepin-3-yl][4-(4-pyridinyl)-1-piperazinyl]-methanone], the “V2 % inhibition at 100 nM” value came to 6%.
On to `COC(=O)c1ccc2c(c1)N(C(=O)c1ccc(C3CCCCC3)cc1)Cc1ccc(C(=O)N3CCN(C)CC3)n1C2.Cl` [Example 1, Methyl 10-(4-cyclohexylbenzoyl)-3-[(4-methyl-1-piperazinyl)carbonyl]-10,11-dihydro-5H-pyrrolo[2,1-c][1,4]benzodiazepine-8-carboxylate hydrochloride salt], for which at 0.1 µM the inhibition was 3%.
In turn, `CC(C)(C)c1ccc(C(=O)c2ccc3n2Cc2ccccc2N(C(=O)c2ccc(C4CCCCC4)cc2)C3)cc1` [Example 5, [4-(tert-Butyl)phenyl][10-(4-cyclohexyl-benzoyl)-10,11-dihydro-5H-pyrrolo[2,1-c][1,4]benzodiazepin-3-yl]methanone] registered an inhibition at 0.1 µM of 2%.
Turning to `CN(C)CCN(C)C(=O)c1ccc2n1Cc1ccccc1N(C(=O)c1ccc(C3CCCCC3)cc1)C2` [Example 34, 10-(4-Cyclohexyl-benzoyl)-N-[2-(dimethylamino)-ethyl]-N-methyl-10,11-dihydro-5H-pyrrolo[2,1-c][1,4]benzodiazepine-3-carboxamide], the inhibition at 0.1 µM was determined as 17%.
As for `O=C(c1ccc2n1Cc1ccccc1N(C(=O)c1ccc(C3CCCCC3)cc1)C2)N1CCN(c2ncccn2)CC1` [Example 23], the IC50 is above 1 µM.
The same measure, in the same setting: as for `CC(=NNC(=O)c1ccc2n1Cc1ccccc1N(C(=O)c1ccc(C3CCCCC3)cc1)C2)N(C)C` [Example 9, N′-{[10-(4-Cyclohexyl-benzoyl)-10,11-dihydro-5H-pyrrolo[2,1-c][1,4]benzodiazepin-3-yl]carbonyl}-N,N-dimethylethanehydrazonamide], the figure is above 1 µM.
Regarding `CN1CCCC1CCNC(=O)c1ccc2n1Cc1ccccc1N(C(=O)c1ccc(C3CCCCC3)cc1)C2` (stereo not shown) [Example 38, 10-(4-Cyclohexyl-benzoyl)-N-[2-(1-methyl-2-pyrrolidinyl)ethyl]-10,11-dihydro-5H-pyrrolo[2,1-c][1,4]benzodiazepine-3-carboxamide], 0.1 µM produced 1% inhibition.
The same measure, in the same setting: as for `CN(C)CCCNC(=O)c1ccc2n1Cc1ccccc1N(C(=O)c1ccc(C3CCCCC3)cc1)C2` [Example 33, 10-(4-Cyclohexyl-benzoyl)-N-[3-(dimethylamino)propyl]-10,11-dihydro-5H-pyrrolo[2,1-c][1,4]benzodiazepine-3-carboxamide], the figure is 14%.
Take `CN1CCN(C(=O)c2ccc3n2Cc2ccccc2N(C(=O)c2ccc(C4CCCCC4)cc2)C3)CC1` [Example 24, [10-(4-Cyclohexyl-benzoyl)-10,11-dihydro-5H-pyrrolo[2,1-c][1,4]benzodiazepin-3-yl](4-methyl-1-piperazinyl)-methanone]: the IC50 is above 1 µM.
Regarding `CN1CCN(C(=O)C(=O)c2ccc3n2Cc2ccccc2N(C(=O)c2ccc(C4CCCCC4)cc2)C3)CC1` [Example 32, 1-[10-(4-Cyclohexyl-benzoyl)-10,11-dihydro-5H-pyrrolo[2,1-c][1,4]benzodiazepin-3-yl]-2-(4-methyl-1-piperazin-1-yl)-1,2-ethane-1,2-dione], the “V2 % inhibition at 100 nM” value was determined as 6%.
For `CN(C)CCCN1CCN(C(=O)c2ccc3n2Cc2ccccc2N(C(=O)c2ccc(C4CCCCC4)cc2)C3)CC1` [Example 45, [10-(4-Cyclohexyl-benzoyl)-10,11-dihydro-5H-pyrrolo[2,1-c][1,4]benzodiazepin-3-yl]{4-[3-(dimethylamino)propyl]-1-piperazinyl}methanone], 0.1 µM produced 10% inhibition.
